{"source": "patent US9676997B2", "about": "“Compositions and methods for stabilizing luminogenic substrates” (Promega Corporation, priority 2014, dated 2017)", "key": {"[1]": {"assay": "Stability of 1.25 mM coelenterazine-h-h in 50% ethanol and 50% propylene glycol with or without 225 mM ATT, HPLC and Arrhenius plots", "format": "physicochemical", "conditions": "225 mM ATT, over time at different temperatures", "description": "The stability of coelenterazine-h-h in the presence and absence of ATT was measured over time at different temperatures. Specifically, 1.25 mM coelenterazine-h-h was present in a solution of 50% ethanol and 50% propylene glycol (i.e., the solution without ATT) or a solution of 50% ethanol and 50% propylene glycol with 225 mM ATT (i.e., the solution with ATT). These two solutions were incubated at −20° C., room temperature (RT), 40° C., or 60° C. and analyzed at 0 days, 1 day, 3 days, 7 days, 15 days, and 30 days.\nFollowing incubation, high performance liquid chromatography (HPLC) was utilized to identify the components of the respective solutions at each time point. Specifically, an Agilent 1100 HPLC instrument was used and equipped with a quaternary pump, thermostatted autosampler and column compartment, and a G1311B diode-array detector. The column used was a Synergi-MAX-RP (Phenomenex, Torrance, Calif.) 100 AÅ 50×4.6 2.5 μm. The run on the HPLC was a gradient run with 0.1% TFA in water and acetonitrile. Absorbance was measured at 262 nanometers (nm). Standards of coelenterazine-h-h and its known degradants were run to confirm both the retention time and absorbance trace. 5 μl of each solution was injected and the retention time of coelenterazine-h-h at room temperature was 5.5 minutes.\nThe results of the HPLC analysis are shown below in Tables 7 and 8 and FIGS. 3A and 3B, in which the values are reported as relative peak area percentage at 262 nm (i.e., the lamba max of the substrate). […] In each of FIGS. 3A and 3B, diamond is 1.25 mM coelenterazine-h-h incubated over time with or without 225 mM ATT, respectively, at −20° C., triangle is 1.25 mM coelenterazine-h-h incubated over time with or without 225 mM ATT, respectively, at room temperature (RT), star is 1.25 mM coelenterazine-h-h incubated over time with or without 225 mM ATT, respectively, at 40° C., and cross is 1.25 mM coelenterazine-h-h incubated over time with or without 225 mM ATT, respectively, at 60° C.\nFrom the HPLC analysis, the half-life of coelenterazine-h-h in the presence of ATT at 60° C. was calculated to be 10 days while the half-life of coelenterazine-h-h in the absence of ATT at 40° C. and 60° C. was calculated to be 27 days and 8 days, respectively (see Table 9 below).\nAdditionally, Arrhenius plots were generated for coelenterazine-h-h in the presence and absence of ATT to calculate the half-life of coelenterazine-h-h at various temperatures. The Arrhenius equation is as follows: […]\nIn FIG. 11, the slope was −10740.9, the intercept was 30.0575, and R^2 was 0.9967.\nIn FIG. 12, the […], and R^2 was 0.9648."}, "[2]": {"assay": "Stability of 2.3 mM furimazine at 37° C. in the dark with or without 200 mM thionucleoside, luminescence with NANOLUC enzyme", "format": "physicochemical", "conditions": "50% propylene glycol:50% ethanol", "description": "Specifically, a stock solution of furimazine in 50% propylene glycol:50% ethanol (v/v) was prepared, in which the final concentration of furimazine by absorbance was 4.6 mM. The furimazine stock solution was then diluted 1:1 in 50% propylene glycol:50% ethanol (v/v) to create a control solution without the additives ATT, TAK-0014 and TAK-0002 (i.e., “no additive furimazine” control) and containing 2.3 mM furimazine. 400 mM stock solutions of ATT, TAK-0014 and TAK-0002 were prepared in 50% propylene glycol:50% ethanol (v/v). Each of the ATT, TAK-0014 and TAK-0002 stock solutions was then diluted 1:1 in the 4.6 mM furimazine stock solution to yield solutions containing 200 mM ATT, TAK-0014 or TAK-0002, and 2.3 mM furimazine.\nEach sample was separated into multiple amber tubes and incubated at 37° C. in a dark incubator (i.e., in the absence of light). Aliquots were taken from each sample at various time points and stored at −20° C. in the dark (i.e., in the absence of light) until all time points were collected.\nTo measure luminescence in the aliquots, each aliquot was diluted 1:50 in buffer (NANOGLO buffer, Promega Corporation) to yield 46 μM furimazine. These diluted aliquots were further diluted 1:10 in buffer (NANOGLO buffer, Promega Corporation) to yield 4.6 μM furimazine. 504 of each dilution (i.e., the twice diluted (0.1) aliquots) was mixed with 504, of CO2-independent media+10% fetal bovine serum (FBS) and 0.4 ng/mL luminogenic enzyme (NANOLUC enzyme, Promega Corporation). Luminescence was measured on a luminometer (GLOMAX Multi Plus luminometer, Promega Corporation). Relative light units (RLUs) were normalized for each time point by the RLU value at the 0 days time point. The percent activity from the 0 days time point (i.e., t=0) was plotted against time (days) for each sample as shown in FIG. 15A. In FIG. 15A, B-ATT denoted TAK-0002 and E-ATT denoted TAK-0014.\nError in Table 15 was the standard error from a regression calculation and Fz denoted furimazine, B-ATT denoted TAK-0002, and E-ATT denoted TAK-0014."}}, "data": [{"smiles": "Cc1n[nH]c(=S)[nH]c1=O", "note": "[ATT, 6-methyl-3-thioxo-3,4-dihydro-1,2,4-triazin-5(2H)-one]", "values": [{"measurement": "stabilization of coelenterazine-h-h against decomposition", "setting": "[1]", "value": "stabilized coelenterazine-h-h against decomposition over time at different temperatures"}, {"measurement": "stabilization of furimazine against decomposition in the absence of light", "setting": "[2]", "value": "stabilized furimazine against decomposition in the absence of light"}]}]}
